# In ChEMBL document CHEMBL3272154, “Synthesis of 1- and 2-substituted indazoles as anthelmintic agents” (1976):
# The source made the active and inactive calls. No cut-off for these calls is given here.
# Experiments:
# Trichinella spiralis [1] = test: Anthelmintic activity against Trichinella spiralis infected in mouse assessed as reduction in nematode level at 25 mg/kg, po and 25 mg/kg, sc administered 8 hrs post infection; type: functional
# Trichinella spiralis [2] = test: Anthelmintic activity against Trichinella spiralis infected in sheep assessed as reduction in intestinal nematode burden at 15 mg/kg, po after 7 days post dose; type: functional; settings: 168 h
# Trichinella spiralis [3] = test: Anthelmintic activity against Trichinella spiralis infected in sheep assessed as reduction in intestinal nematode burden at 25 mg/kg, po after 7 days post dose; type: functional; settings: 168 h
# Trichinella spiralis [4] = test: Anthelmintic activity against Trichinella spiralis infected in po dosed sheep assessed as reduction in intestinal nematode burden; type: functional, organism-based
Compound,inhibition in vivo at 25 mg/kg (Trichinella spiralis [1]) [%],inhibition in vivo at 15 mg/kg (Trichinella spiralis [2]) [%],inhibition in vivo at 25 mg/kg (Trichinella spiralis [3]) [%],Activity (Trichinella spiralis [4])
O=C(c1cnc2ccccc2n1)n1cc2ccccc2n1,36,,,
CCCCCCCN(C)C(=O)n1cc2ccccc2n1,45,0,,
COC(=O)n1cc2ccccc2n1,26,,,
O=C(OCc1ccccc1)n1cc2ccccc2n1,74,0,,
CCCCCCCN(C)C(=O)Nc1nc2ccccc2[nH]1,14,0,,
O=C(c1ccco1)n1ncc2ccccc21,16,0,,
COC(=O)Nc1nc2ccccc2[nH]1 [CARBENDAZIM],0,,98,
CCCCCCN(C)C(=O)n1cc2cc(Cl)ccc2n1,40,,,
CCCCCCCN(C)C(=O)n1nc2ccccc2n1,,,,Active
COC(=O)n1ncc2ccccc21,23,,,
CCCCCCN(C)C(=O)n1ncc2ccc([N+](=O)[O-])cc21,41,,,
O=C(c1ccco1)n1cc2ccccc2n1,58,0,,
O=C(Nc1nc2ccccc2[nH]1)c1ccco1,,,99,
CCCCc1ccc2[nH]c(NC(=O)OC)nc2c1 [PARBENDAZOLE],99,,99,
